Source: patent US8192962B2, “Processes for detecting toxic substances” (Daikin Industries, Ltd., priority 2001, dated 2012)

Test system: Stress protein genes
Assay: DNA chip mRNA expression in yeast, stress protein genes (Table 6)
Assay type: cell-based, Saccharomyces cerevisiae S288C
Procedure, shortened: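 Values are treated/untreated fluorescence ratios from a whole-genome yeast DNA chip hybridized over 12 hours at 65° C with Cy3- or Cy5-labelled cDNA from poly(A) mRNA. Log-phase S288C yeast in YPD at 25° C had received a single toxic chemical for two hours, dosed to slow growth without killing.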

[Cl][Hg][Cl] [(3), HgCl2]
The level of expressed mRNA in the presence of chemical substance/The level of expressed mRNA in the absence of chemical substance (yeast gene YAL005C): 7.0 | The level of expressed mRNA in the presence of chemical substance/The level of expressed mRNA in the absence of chemical substance (yeast gene YAL015C): 1.7 | The level of expressed mRNA in the presence of chemical substance/The level of expressed mRNA in the absence of chemical substance (yeast gene YBL075C): 3.1 | The level of expressed mRNA in the presence of chemical substance/The level of expressed mRNA in the absence of chemical substance (yeast gene YBL093C): 0.4 | The level of expressed mRNA in the presence of chemical substance/The level of expressed mRNA in the absence of chemical substance (yeast gene YBR044C): 0.7 | The level of expressed mRNA in the presence of chemical substance/The level of expressed mRNA in the absence of chemical substance (yeast gene YBR054W): 5.4 | The level of expressed mRNA in the presence of chemical substance/The level of expressed mRNA in the absence of chemical substance (yeast gene YBR067C): 2.8 | The level of expressed mRNA in the presence of chemical substance/The level of expressed mRNA in the absence of chemical substance (yeast gene YBR072W): 18.4 | The level of expressed mRNA in the presence of chemical substance/The level of expressed mRNA in the absence of chemical substance (yeast gene YBR126C): 5.6 | The level of expressed mRNA in the presence of chemical substance/The level of expressed mRNA in the absence of chemical substance (yeast gene YBR169C): 3.9 | The level of expressed mRNA in the presence of chemical substance/The level of expressed mRNA in the absence of chemical substance (yeast gene YCL035C): 1.5 | The level of expressed mRNA in the presence of chemical substance/The level of expressed mRNA in the absence of chemical substance (yeast gene YCR021C): 4.2 | The level of expressed mRNA in the presence of chemical substance/The level of expressed mRNA in the absence of chemical substance (yeast gene YCR060W): 0.9 | The level of expressed mRNA in the presence of chemical substance/The level of expressed mRNA in the absence of chemical substance (yeast gene YCR083W): 1.5 | The level of expressed mRNA in the presence of chemical substance/The level of expressed mRNA in the absence of chemical substance (yeast gene YDL022W): 6.9 | The level of expressed mRNA in the presence of chemical substance/The level of expressed mRNA in the absence of chemical substance (yeast gene YDL025C): 3.5 | The level of expressed mRNA in the presence of chemical substance/The level of expressed mRNA in the absence of chemical substance (yeast gene YDR033W): 4.6 | The level of expressed mRNA in the presence of chemical substance/The level of expressed mRNA in the absence of chemical substance (yeast gene YDR077W): 3.5 | The level of expressed mRNA in the presence of chemical substance/The level of expressed mRNA in the absence of chemical substance (yeast gene YDR098C): 1.0 | The level of expressed mRNA in the presence of chemical substance/The level of expressed mRNA in the absence of chemical substance (yeast gene YDR155C): 3.2 | The level of expressed mRNA in the presence of chemical substance/The level of expressed mRNA in the absence of chemical substance (yeast gene YDR258C): 2.8 | The level of expressed mRNA in the presence of chemical substance/The level of expressed mRNA in the absence of chemical substance (yeast gene YDR293C): 1.2 | The level of expressed mRNA in the presence of chemical substance/The level of expressed mRNA in the absence of chemical substance (yeast gene YDR436W): 1.1 | The level of expressed mRNA in the presence of chemical substance/The level of expressed mRNA in the absence of chemical substance (yeast gene YDR513W): 2.3 | The level of expressed mRNA in the presence of chemical substance/The level of expressed mRNA in the absence of chemical substance (yeast gene YDR519W): 1.7 | The level of expressed mRNA in the presence of chemical substance/The level of expressed mRNA in the absence of chemical substance (yeast gene YEL030W): 1.9 | The level of expressed mRNA in the presence of chemical substance/The level of expressed mRNA in the absence of chemical substance (yeast gene YEL039C): 1.3 | The level of expressed mRNA in the presence of chemical substance/The level of expressed mRNA in the absence of chemical substance (yeast gene YER042W): 3.1 | The level of expressed mRNA in the presence of chemical substance/The level of expressed mRNA in the absence of chemical substance (yeast gene YER057C): 3.0 | The level of expressed mRNA in the presence of chemical substance/The level of expressed mRNA in the absence of chemical substance (yeast gene YER103W): 5.2 | The level of expressed mRNA in the presence of chemical substance/The level of expressed mRNA in the absence of chemical substance (yeast gene YER125W): 1.5 | The level of expressed mRNA in the presence of chemical substance/The level of expressed mRNA in the absence of chemical substance (yeast gene YFL014W): 5.7 | The level of expressed mRNA in the presence of chemical substance/The level of expressed mRNA in the absence of chemical substance (yeast gene YFL016C): 1.6 | The level of expressed mRNA in the presence of chemical substance/The level of expressed mRNA in the absence of chemical substance (yeast gene YFL020C): 1.9 | The level of expressed mRNA in the presence of chemical substance/The level of expressed mRNA in the absence of chemical substance (yeast gene YFR052W): 1.3 | The level of expressed mRNA in the presence of chemical substance/The level of expressed mRNA in the absence of chemical substance (yeast gene YGL073W): 0.9 | The level of expressed mRNA in the presence of chemical substance/The level of expressed mRNA in the absence of chemical substance (yeast gene YGL115W): 1.2 | The level of expressed mRNA in the presence of chemical substance/The level of expressed mRNA in the absence of chemical substance (yeast gene YGL181W): 1.2 | The level of expressed mRNA in the presence of chemical substance/The level of expressed mRNA in the absence of chemical substance (yeast gene YGR088W): 7.7 | The level of expressed mRNA in the presence of chemical substance/The level of expressed mRNA in the absence of chemical substance (yeast gene YHL028W): 1.4 | The level of expressed mRNA in the presence of chemical substance/The level of expressed mRNA in the absence of chemical substance (yeast gene YHL046C): 2.1 | The level of expressed mRNA in the presence of chemical substance/The level of expressed mRNA in the absence of chemical substance (yeast gene YHR030C): 0.6 | The level of expressed mRNA in the presence of chemical substance/The level of expressed mRNA in the absence of chemical substance (yeast gene YHR057C): 0.7 | The level of expressed mRNA in the presence of chemical substance/The level of expressed mRNA in the absence of chemical substance (yeast gene YHR104W): 15.7 | The level of expressed mRNA in the presence of chemical substance/The level of expressed mRNA in the absence of chemical substance (yeast gene YIL011W): 3.9 | The level of expressed mRNA in the presence of chemical substance/The level of expressed mRNA in the absence of chemical substance (yeast gene YIL033C): 3.3 | The level of expressed mRNA in the presence of chemical substance/The level of expressed mRNA in the absence of chemical substance (yeast gene YIR037W): 2.0 | The level of expressed mRNA in the presence of chemical substance/The level of expressed mRNA in the absence of chemical substance (yeast gene YIR038C): 4.6 | The level of expressed mRNA in the presence of chemical substance/The level of expressed mRNA in the absence of chemical substance (yeast gene YJL128C): 0.4 | The level of expressed mRNA in the presence of chemical substance/The level of expressed mRNA in the absence of chemical substance (yeast gene YJL158C): 2.8 | The level of expressed mRNA in the presence of chemical substance/The level of expressed mRNA in the absence of chemical substance (yeast gene YJL159W): 2.8 | The level of expressed mRNA in the presence of chemical substance/The level of expressed mRNA in the absence of chemical substance (yeast gene YJL165C): 1.3 | The level of expressed mRNA in the presence of chemical substance/The level of expressed mRNA in the absence of chemical substance (yeast gene YJR045C): 3.9 | The level of expressed mRNA in the presence of chemical substance/The level of expressed mRNA in the absence of chemical substance (yeast gene YJR090C): 0.6 | The level of expressed mRNA in the presence of chemical substance/The level of expressed mRNA in the absence of chemical substance (yeast gene YKL161C): 0.9 | The level of expressed mRNA in the presence of chemical substance/The level of expressed mRNA in the absence of chemical substance (yeast gene YKL163W): 3.4 | The level of expressed mRNA in the presence of chemical substance/The level of expressed mRNA in the absence of chemical substance (yeast gene YKL164C): 2.5 | The level of expressed mRNA in the presence of chemical substance/The level of expressed mRNA in the absence of chemical substance (yeast gene YKL210W): 2.7 | The level of expressed mRNA in the presence of chemical substance/The level of expressed mRNA in the absence of chemical substance (yeast gene YKR053C): 1.0 | The level of expressed mRNA in the presence of chemical substance/The level of expressed mRNA in the absence of chemical substance (yeast gene YLL024C): 5.3 | The level of expressed mRNA in the presence of chemical substance/The level of expressed mRNA in the absence of chemical substance (yeast gene YLL026W): 7.7 | The level of expressed mRNA in the presence of chemical substance/The level of expressed mRNA in the absence of chemical substance (yeast gene YLL039C): 1.7 | The level of expressed mRNA in the presence of chemical substance/The level of expressed mRNA in the absence of chemical substance (yeast gene YLL060C): 2.3 | The level of expressed mRNA in the presence of chemical substance/The level of expressed mRNA in the absence of chemical substance (yeast gene YLR006C): 0.9 | The level of expressed mRNA in the presence of chemical substance/The level of expressed mRNA in the absence of chemical substance (yeast gene YLR109W): 6.0 | The level of expressed mRNA in the presence of chemical substance/The level of expressed mRNA in the absence of chemical substance (yeast gene YLR259C): 3.1 | The level of expressed mRNA in the presence of chemical substance/The level of expressed mRNA in the absence of chemical substance (yeast gene YML007W): 0.9 | The level of expressed mRNA in the presence of chemical substance/The level of expressed mRNA in the absence of chemical substance (yeast gene YML070W): 2.5 | The level of expressed mRNA in the presence of chemical substance/The level of expressed mRNA in the absence of chemical substance (yeast gene YMR021C): 0.9 | The level of expressed mRNA in the presence of chemical substance/The level of expressed mRNA in the absence of chemical substance (yeast gene YMR173W): 3.0 | The level of expressed mRNA in the presence of chemical substance/The level of expressed mRNA in the absence of chemical substance (yeast gene YMR186W): 2.0 | The level of expressed mRNA in the presence of chemical substance/The level of expressed mRNA in the absence of chemical substance (yeast gene YNL064C): 1.8 | The level of expressed mRNA in the presence of chemical substance/The level of expressed mRNA in the absence of chemical substance (yeast gene YNL160W): 10.6 | The level of expressed mRNA in the presence of chemical substance/The level of expressed mRNA in the absence of chemical substance (yeast gene YNL241C): 4.3 | The level of expressed mRNA in the presence of chemical substance/The level of expressed mRNA in the absence of chemical substance (yeast gene YNR076W): 2.5 | The level of expressed mRNA in the presence of chemical substance/The level of expressed mRNA in the absence of chemical substance (yeast gene YOL064C): 1.1 | The level of expressed mRNA in the presence of chemical substance/The level of expressed mRNA in the absence of chemical substance (yeast gene YOL161C): 2.4 | The level of expressed mRNA in the presence of chemical substance/The level of expressed mRNA in the absence of chemical substance (yeast gene YOR008C): 1.4 | The level of expressed mRNA in the presence of chemical substance/The level of expressed mRNA in the absence of chemical substance (yeast gene YOR009W): 3.2 | The level of expressed mRNA in the presence of chemical substance/The level of expressed mRNA in the absence of chemical substance (yeast gene YOR010C): 3.2 | The level of expressed mRNA in the presence of chemical substance/The level of expressed mRNA in the absence of chemical substance (yeast gene YOR027W): 4.4 | The level of expressed mRNA in the presence of chemical substance/The level of expressed mRNA in the absence of chemical substance (yeast gene YOR208W): 1.2 | The level of expressed mRNA in the presence of chemical substance/The level of expressed mRNA in the absence of chemical substance (yeast gene YPL059W): 2.6 | The level of expressed mRNA in the presence of chemical substance/The level of expressed mRNA in the absence of chemical substance (yeast gene YPL106C): 2.4 | The level of expressed mRNA in the presence of chemical substance/The level of expressed mRNA in the absence of chemical substance (yeast gene YPL140C): 0.9 | The level of expressed mRNA in the presence of chemical substance/The level of expressed mRNA in the absence of chemical substance (yeast gene YPL194W): 0.4 | The level of expressed mRNA in the presence of chemical substance/The level of expressed mRNA in the absence of chemical substance (yeast gene YPL223C): 1.2 | The level of expressed mRNA in the presence of chemical substance/The level of expressed mRNA in the absence of chemical substance (yeast gene YPL240C): 2.4 | The level of expressed mRNA in the presence of chemical substance/The level of expressed mRNA in the absence of chemical substance (yeast gene YPR005C): 1.5 | The level of expressed mRNA in the presence of chemical substance/The level of expressed mRNA in the absence of chemical substance (yeast gene YPR026W): 5.0
